For 34 compounds, DC50 and IC50 results are on record in ChEMBL document CHEMBL5537174, “Discovery of Potent SOS1 PROTACs with Effective Antitumor Activities against NCI-H358 Tumor Cells In Vitro/In Vivo” (J Med Chem, 2024).

Structures are written as SMILES.

The target in the first assay is Protein cereblon/Son of sevenless homolog 1 (Homo sapiens, UniProt Q07889+Q96SW2). Put plainly: PROTAC activity at CRBN/SOS1 in human NCI-H358 cells assessed as induction of SOS1 degradation incubated for 6 hrs by Western blotting analysis. Type of assay: cell-based.
Sequence of Protein cereblon/Son of sevenless homolog 1 (Q07889 whole entry): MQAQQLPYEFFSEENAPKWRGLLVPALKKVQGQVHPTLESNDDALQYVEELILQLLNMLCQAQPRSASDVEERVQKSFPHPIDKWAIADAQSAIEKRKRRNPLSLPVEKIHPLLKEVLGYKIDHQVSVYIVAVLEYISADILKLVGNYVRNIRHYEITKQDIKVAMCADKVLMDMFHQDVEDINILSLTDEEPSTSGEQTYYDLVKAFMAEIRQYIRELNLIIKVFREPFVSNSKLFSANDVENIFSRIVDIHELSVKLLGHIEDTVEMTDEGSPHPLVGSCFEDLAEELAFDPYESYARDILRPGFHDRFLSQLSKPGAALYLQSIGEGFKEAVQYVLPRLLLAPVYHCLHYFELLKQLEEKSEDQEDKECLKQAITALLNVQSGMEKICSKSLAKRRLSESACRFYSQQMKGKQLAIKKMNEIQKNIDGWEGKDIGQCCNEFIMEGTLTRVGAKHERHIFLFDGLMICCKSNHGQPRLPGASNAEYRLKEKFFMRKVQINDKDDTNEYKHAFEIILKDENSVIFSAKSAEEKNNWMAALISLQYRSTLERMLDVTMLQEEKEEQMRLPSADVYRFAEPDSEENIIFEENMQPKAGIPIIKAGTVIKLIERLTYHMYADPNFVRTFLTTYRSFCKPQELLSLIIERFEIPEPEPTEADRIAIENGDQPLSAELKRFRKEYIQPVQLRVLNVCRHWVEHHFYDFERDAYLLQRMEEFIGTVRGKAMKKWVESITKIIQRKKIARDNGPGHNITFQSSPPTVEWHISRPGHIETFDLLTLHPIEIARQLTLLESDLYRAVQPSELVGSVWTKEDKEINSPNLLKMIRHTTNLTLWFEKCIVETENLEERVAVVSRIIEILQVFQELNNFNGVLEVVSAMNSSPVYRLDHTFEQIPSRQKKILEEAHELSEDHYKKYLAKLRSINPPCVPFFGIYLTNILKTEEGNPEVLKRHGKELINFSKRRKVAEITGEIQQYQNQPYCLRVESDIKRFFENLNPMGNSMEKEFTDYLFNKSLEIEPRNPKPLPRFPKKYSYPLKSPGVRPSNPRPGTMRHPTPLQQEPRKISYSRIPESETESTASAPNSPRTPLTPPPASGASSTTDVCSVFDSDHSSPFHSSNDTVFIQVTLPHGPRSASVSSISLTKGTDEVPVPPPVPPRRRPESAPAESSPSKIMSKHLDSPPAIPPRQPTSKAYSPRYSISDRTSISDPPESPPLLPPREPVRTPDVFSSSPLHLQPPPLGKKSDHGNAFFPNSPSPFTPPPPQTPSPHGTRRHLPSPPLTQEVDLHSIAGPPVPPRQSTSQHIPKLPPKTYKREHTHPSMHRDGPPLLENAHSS
Sequence of Protein cereblon/Son of sevenless homolog 1 (Q96SW2 whole entry): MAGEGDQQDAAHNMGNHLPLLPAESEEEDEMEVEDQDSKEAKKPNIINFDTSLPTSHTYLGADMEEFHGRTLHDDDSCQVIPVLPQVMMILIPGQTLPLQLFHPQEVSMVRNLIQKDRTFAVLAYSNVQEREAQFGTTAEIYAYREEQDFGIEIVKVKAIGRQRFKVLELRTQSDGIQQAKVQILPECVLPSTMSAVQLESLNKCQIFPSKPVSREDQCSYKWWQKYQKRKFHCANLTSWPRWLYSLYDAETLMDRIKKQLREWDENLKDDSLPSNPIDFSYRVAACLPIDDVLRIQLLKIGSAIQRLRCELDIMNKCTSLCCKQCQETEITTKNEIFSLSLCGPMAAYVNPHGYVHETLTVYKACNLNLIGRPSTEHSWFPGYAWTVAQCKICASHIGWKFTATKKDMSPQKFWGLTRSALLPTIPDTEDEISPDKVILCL
Conditions: not given; call rule not given here
A general note: A western blot detects proteins with antibodies after separation by electrophoresis.
On to `O=C(O)CCCCCCNc1cccc2c1C(=O)N(C1CCC(=O)NC1=O)C2=O` (stereo not drawn), for which the DC50 (as a rule, the concentration giving 50% degradation) is listed as “Not Active”.
Still for that read-out and setting: the entry for `COc1cc2nc(C)nc(N[C@H](C)c3cc(N)cc(C(F)(F)F)c3)c2cc1OCC1(CN(C)C(=O)CCCCCCNc2cccc3c2C(=O)N(C2CCC(=O)N(C)C2=O)C3=O)CC1` (stereo partly drawn) is “Not Active”.

The assay is the same for the next values; noted with them: read-out: DC50.
On to `COc1cc2nc(C)nc(N[C@H](C)c3cc(N)cc(C(F)F)c3)c2cc1OCC1(CN(C)C(=O)CCCCCCNc2cccc3c2C(=O)N(C2CCC(=O)NC2=O)C3=O)CC1` (stereo partly drawn), for which the 50% degradation concentration (DC50) is 45 nM.
Still for that read-out and setting: the figure for `COc1cc2nc(C)nc(N[C@H](C)c3cc(N)cc(C(F)(F)F)c3)c2cc1OCC1(CN(C)C(=O)C2CCN(C3CCC(Nc4cccc5c4C(=O)N(C4CCC(=O)NC4=O)C5=O)CC3)CC2)CC1` (stereo partly drawn) is 55 nM; for `COc1cc2nc(C)nc(N[C@H](C)c3cc(N)cc(C(F)(F)F)c3)c2cc1OCC1(CN(C)C(=O)CCCCCCNc2cccc3c2CN(C2CCC(=O)NC2=O)C3=O)CC1` (stereo partly drawn) it is 151 nM.

The subject of a further assay is NCI-H358. Put plainly: Antiproliferative activity against human NCI-H358 cells assessed as inhibition of cell proliferation incubated for 7 days by celltiter-glo 3D assay. To be noted: NCI-H358, 168 h. The format is functional, cell-based.
In the case of `COc1cc2nc(C)nc(N[C@H](C)c3cc(N)cc(C(F)(F)F)c3)c2cc1OCC1(CN(C)C(=O)CCNc2cccc3c2C(=O)N(C2CCC(=O)NC2=O)C3=O)CC1` (stereo partly drawn), the IC50 (in general, the concentration at which inhibition is half-maximal) worked out at 2890 nM.
Still for that read-out and setting: the figure for `COc1cc2nc(C)nc(N[C@H](C)c3cc(N)cc(C(F)(F)F)c3)c2cc1OCC1(CN(C)C(=O)CCCCCCNc2c(F)ccc3c2C(=O)N(C2CCC(=O)NC2=O)C3=O)CC1` (stereo partly drawn) is 63 nM; for `COc1cc2nc(C)nc(N[C@H](C)c3cc(N)cc(C(F)(F)F)c3)c2cc1OCC1(CN(C)C(=O)CCOCCC#Cc2cccc3c2C(=O)N(C2CCC(=O)NC2=O)C3=O)CC1` (stereo partly drawn) it is 1140 nM.
For `COc1cc2nc(C)nc(N[C@H](C)c3cc(N)cc(C(F)F)c3)c2cc1OCC1(CN(C)C(=O)CCCCCCNc2cccc3c2C(=O)N(C2CCC(=O)NC2=O)C3=O)CC1` (stereo partly drawn), the IC50 is 16 nM.
Regarding `COc1cc2nc(C)nc(N[C@H](C)c3cc(N)cc(C(F)(F)F)c3)c2cc1OCC1(CN(C)C(=O)COCCCCNc2cccc3c2C(=O)N(C2CCC(=O)NC2=O)C3=O)CC1` (stereo partly drawn), the 50% inhibitory concentration (IC50) turned out to be 114 nM.
Still for that read-out and setting: the value for `COc1cc2nc(C)nc(N[C@H](C)c3cc(N)cc(C(F)(F)F)c3)c2cc1OCC1(CN(C)C(=O)C2CCC(OC3CCN(c4ccc5c(c4)C(=O)N(C4CCC(=O)NC4=O)C5=O)CC3)CC2)CC1` (stereo partly drawn) was 733 nM.
Same read-out and setting: the value for `COc1cc2nc(C)nc(N[C@H](C)c3cc(N)cc(C(F)(F)F)c3)c2cc1OCC1(CN(C)C(=O)C2CCN(C3CCC(Nc4cccc5c4C(=O)N(C4CCC(=O)NC4=O)C5=O)CC3)CC2)CC1` (stereo partly drawn) was 51 nM; that for `COc1cc2nc(C)nc(N[C@H](C)c3cc(N)cc(C(F)(F)F)c3)c2cc1OCC1(CN(C)C(=O)CCC(=O)N(C)C2CCC(Nc3cccc4c3C(=O)N(C3CCC(=O)NC3=O)C4=O)CC2)CC1` (stereo partly drawn) was 927 nM.
Same read-out and setting: the value for `COc1cc2nc(C)nc(N[C@H](C)c3cc(N)cc(C(F)(F)F)c3)c2cc1OCC1(CN(C)C(=O)CCCCCCNc2cccc3c2CN(C2CCC(=O)NC2=O)C3=O)CC1` (stereo partly drawn) was 47 nM; that for `COc1cc2nc(C)nc(N[C@H](C)c3cc(N)cc(C(F)(F)F)c3)c2cc1OCC1(CN(C)C(=O)CCOCCNc2cccc3c2C(=O)N(C2CCC(=O)NC2=O)C3=O)CC1` (stereo partly drawn) was 1660 nM; that for `COc1cc2nc(C)nc(N[C@H](C)c3cc(N)cc(C(F)(F)F)c3)c2cc1OCC1(CN(C)C(=O)CCCCCCNc2ccc3c(c2F)C(=O)N(C2CCC(=O)NC2=O)C3=O)CC1` (stereo partly drawn) was 4180 nM.
Regarding `COc1cc2nc(C)nc(N[C@H](C)c3cc(N)cc(C(F)(F)F)c3)c2cc1OCC1(CN(C)C(=O)C2CCC(N3CCN(c4ccc5c(c4)C(=O)N(C4CCC(=O)NC4=O)C5=O)CC3)CC2)CC1` (stereo partly drawn), the 50% inhibitory concentration (IC50) was found to be 1370 nM.
Take `COc1cc2nc(C)nc(N[C@H](C)c3cc(N)cc(C(F)(F)F)c3)c2cc1OCC1(CN(C)C(=O)CCCCCCNc2cccc3c2C(=O)N(C2CCC(=O)N(C)C2=O)C3=O)CC1` (stereo partly drawn): the IC50 was 1380 nM.
Same read-out and setting: the value for `COc1cc2nc(C)nc(N[C@H](C)c3cc(N)cc(C(F)(F)F)c3)c2cc1OCC1(CN(C)C(=O)CCCCCC#Cc2cccc3c2C(=O)N(C2CCC(=O)NC2=O)C3=O)CC1` (stereo partly drawn) was 591 nM.
The same measure, in the same setting: the figure for `COc1cc2nc(C)nc(N[C@H](C)c3cc(N)cc(C(F)(F)F)c3)c2cc1OCC1(CN(C)C(=O)CCOCCOCCNc2cccc3c2C(=O)N(C2CCC(=O)NC2=O)C3=O)CC1` (stereo partly drawn) is 421 nM; for `COc1cc2nc(C)nc(N[C@H](C)c3cccc(C#N)c3C)c2cc1OCC1(CN(C)C(=O)CCCCCCNc2cccc3c2C(=O)N(C2CCC(=O)NC2=O)C3=O)CC1` (stereo partly drawn) it is 2050 nM.
For the compound `COc1cc2nc(C)nc(N[C@H](C)c3cc(N)cc(C(F)(F)F)c3)c2cc1OCC1(CN(C)C(=O)CN2CCC(CN3CCN(c4ccc5c(c4)C(=O)N(C4CCC(=O)NC4=O)C5=O)CC3)CC2)CC1` (stereo partly drawn), the IC50 came to 1080 nM.
Same read-out and setting: the value for `COc1cc2nc(C)nc(N[C@H](C)c3cc(N)cc(C(F)(F)F)c3)c2cc1OCC1(CN(C)C(=O)C2CCN(C3CCN(c4ccc5c(c4)C(=O)N(C4CCC(=O)NC4=O)C5=O)CC3)CC2)CC1` (stereo partly drawn) was 684 nM; that for `COc1cc2nc(C)nc(N[C@H](C)c3cc(N)cc(C(F)(F)F)c3)c2cc1OCC1(CN(C)C(=O)COCCNc2cccc3c2C(=O)N(C2CCC(=O)NC2=O)C3=O)CC1` (stereo partly drawn) was 1380 nM; that for `COc1cc2nc(C)nc(N[C@H](C)c3cc(N)cc(C(F)(F)F)c3)c2cc1OCC1(CN(C)C(=O)CCCCCNc2cccc3c2C(=O)N(C2CCC(=O)NC2=O)C3=O)CC1` (stereo partly drawn) was 334 nM.
The same measure, in the same setting: the figure for `COc1cc2nc(C)nc(N[C@H](C)c3cc(N)cc(C(F)(F)F)c3)c2cc1OCC1(CN(C)C(=O)CN2CCN(C3CN(c4ccc5c(c4)C(=O)N(C4CCC(=O)NC4=O)C5=O)C3)CC2)CC1` (stereo partly drawn) is 1200 nM.
On the same count and under the same terms, the figure for `COc1cc2nc(C)nc(N[C@H](C)c3cccc(C(F)(F)C(C)(C)O)c3F)c2cc1OCC1(CN(C)C(=O)CCCCCCNc2cccc3c2C(=O)N(C2CCC(=O)NC2=O)C3=O)CC1` (stereo partly drawn) is 358 nM.
With `COc1cc2nc(C)nc(N[C@H](C)c3cc(N)cc(C(F)(F)F)c3)c2cc1OCC1(CN(C)C(=O)C2CCN(C(=O)C3CCN(c4ccc5c(c4)C(=O)N(C4CCC(=O)NC4=O)C5=O)CC3)CC2)CC1` (stereo partly drawn), the 50% inhibitory concentration (IC50) is 84 nM.
The same measure, in the same setting: the figure for `COc1cc2nc(C)nc(N[C@H](C)c3cc(N)cc(C(F)(F)F)c3)c2cc1OCC1(CN(C)C(=O)CN2CCC(OC3CCN(c4ccc5c(c4)C(=O)N(C4CCC(=O)NC4=O)C5=O)CC3)CC2)CC1` (stereo partly drawn) is 814 nM; for `COc1cc2nc(C)nc(N[C@H](C)c3cc(N)cc(C(F)(F)F)c3)c2cc1OCC1(CN(C)C(=O)CCCOCCNc2cccc3c2C(=O)N(C2CCC(=O)NC2=O)C3=O)CC1` (stereo partly drawn) it is 70 nM; for `COc1cc2nc(C)nc(N[C@H](C)c3cc(N)cc(C(F)(F)F)c3)c2cc1OCC1(CN(C)C(=O)CCCN(C)C2CCC(Nc3cccc4c3C(=O)N(C3CCC(=O)NC3=O)C4=O)CC2)CC1` (stereo partly drawn) it is 814 nM.
On the same count and under the same terms, the value for `COc1cc2nc(C)nc(N[C@H](C)c3cc(N)cc(C(F)(F)F)c3)c2cc1OCC1(CN(C)C(=O)CCCCCCNc2nccc3c2C(=O)N(C2CCC(=O)NC2=O)C3=O)CC1` (stereo partly drawn) was 318 nM; that for `COc1cc2nc(C)nc(N[C@H](C)c3cc(N)cc(C(F)(F)F)c3)c2cc1OCC1(CN(C)C(=O)C2CCC(NC3CCN(c4ccc5c(c4)C(=O)N(C4CCC(=O)NC4=O)C5=O)CC3)CC2)CC1` (stereo partly drawn) was 513 nM; that for `COc1cc2nc(C)nc(N[C@H](C)c3cc(N)cc(C(F)(F)F)c3)c2cc1OCC1(CN(C)C(=O)CCCCCCNc2ccc3c(c2)C(=O)N(C2CCC(=O)NC2=O)C3=O)CC1` (stereo partly drawn) was 799 nM.
On the same count and under the same terms, the value for `COc1cc2nc(C)nc(N[C@H](C)c3cc(N)cc(C(F)(F)F)c3)c2cc1OCC1(CN(C)C(=O)CCCCCCOc2cccc3c2C(=O)N(C2CCC(=O)NC2=O)C3=O)CC1` (stereo partly drawn) was 75 nM; that for `COc1cc2nc(C)nc(N[C@H](C)c3cc(N)cc(C(F)(F)F)c3)c2cc1OCC1(CN(C)C(=O)CCCCNc2cccc3c2C(=O)N(C2CCC(=O)NC2=O)C3=O)CC1` (stereo partly drawn) was 86 nM.
`COc1cc2nc(C)nc(N[C@H](C)c3cc(N)cc(C(F)(F)F)c3)c2cc1OCC1(CN(C)C(=O)CN2CCN(C3CCN(c4ccc5c(c4)C(=O)N(C4CCC(=O)NC4=O)C5=O)CC3)CC2)CC1` (stereo partly drawn): the IC50 was 928 nM.
On the same count and under the same terms, the figure for `COc1cc2nc(C)nc(N[C@H](C)c3cc(N)cc(C(F)(F)C(C)(C)O)c3)c2cc1OCC1(CN(C)C(=O)CCCCCCNc2cccc3c2C(=O)N(C2CCC(=O)NC2=O)C3=O)CC1` (stereo partly drawn) is 220 nM.
